In the supplement of paper PMC13207355:

Experiments:
Conditions in all cases: exposure time: 72 h
E28 [1] = patient-derived glioblastoma stem cells of classical subtype; experiment: phenotypic distance (Euclidean, principal components) from DMSO controls (arbitrary units); higher = stronger morphological change
E34 [2] = patient-derived glioblastoma stem cells of proneural subtype; experiment: as above
E31 [3] = patient-derived glioblastoma stem cells of proneural subtype; experiment: as above
E13 [4] = patient-derived glioblastoma stem cells of classical subtype; experiment: as above
E57 [5] = patient-derived glioblastoma stem cells of mesenchymal subtype; experiment: as above
E21 [6] = patient-derived glioblastoma stem cells of mesenchymal subtype; experiment: as above
FT3469 [7] = normal neural stem cell line; experiment: as above
E28 [8] = experiment: surviving fraction (nuclei count normalised to DMSO); higher = more cells surviving (less toxic)
E34 [9] = experiment: as above
E31 [10] = experiment: as above
E13 [11] = experiment: as above
E57 [12] = experiment: as above
E21 [13] = experiment: as above
FT3469 [14] = experiment: as above
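For phenotypic distance (Euclidean, principal components) from DMSO controls in this document: cell Painting imaging in 384-well plates, CellProfiler features reduced to at least 20 principal components, Euclidean distance versus same-plate DMSO vehicle wells (0.1% v/v), median over six images per well.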
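For surviving fraction (nuclei count normalised to DMSO) in this document: nuclei counted by high-content imaging of Hoechst-stained cells in laminin-coated 384-well plates, relative to 0.1% DMSO vehicle wells, with staurosporine as cell-death control.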

Cc1cc(CN2CCN(c3c(Br)cnc4nc(-c5ccc(N6CCN(C)CC6)cc5)[nH]c34)CC2)no1
Conditions	phenotypic distance	surviving fraction
E13 [4], 4.1 nM	0.33	–
E13 [4], 12.3 nM	0.336	–
E13 [4], 37 nM	0.51	–
E13 [4], 111.1 nM	0.456	–
E13 [4], 333.3 nM	1.86	–
E13 [4], 1000 nM	4.59	–
E13 [4], 3000 nM	13.4	–
E13 [11], 4.1 nM	–	0.995
E13 [11], 12.3 nM	–	0.966
E13 [11], 37 nM	–	0.963
E13 [11], 111.1 nM	–	0.91
E13 [11], 333.3 nM	–	0.676
E13 [11], 1000 nM	–	0.528
E13 [11], 3000 nM	–	0.0986
E21 [6], 4.1 nM	1.03	–
E21 [6], 12.3 nM	0.842	–
E21 [6], 37 nM	0.688	–
E21 [6], 111.1 nM	0.989	–
E21 [6], 333.3 nM	2.77	–
E21 [6], 1000 nM	5.77	–
E21 [6], 3000 nM	7.03	–
E21 [13], 4.1 nM	–	0.936
E21 [13], 12.3 nM	–	0.864
E21 [13], 37 nM	–	0.9
E21 [13], 111.1 nM	–	0.917
E21 [13], 333.3 nM	–	0.6
E21 [13], 1000 nM	–	0.387
E21 [13], 3000 nM	–	0.0348
E28 [1], 4.1 nM	1.13	–
E28 [1], 12.3 nM	1.52	–
E28 [1], 37 nM	1.01	–
E28 [1], 111.1 nM	1.29	–
E28 [1], 333.3 nM	1.23	–
E28 [1], 1000 nM	2.97	–
E28 [1], 3000 nM	5.6	–
E28 [8], 4.1 nM	–	1.15
E28 [8], 12.3 nM	–	0.888
E28 [8], 37 nM	–	1.09
E28 [8], 111.1 nM	–	0.916
E28 [8], 333.3 nM	–	0.806
E28 [8], 1000 nM	–	0.392
E28 [8], 3000 nM	–	0.163
E31 [3], 4.1 nM	0.99	–
E31 [3], 12.3 nM	1.9	–
E31 [3], 37 nM	1.97	–
E31 [3], 111.1 nM	0.784	–
E31 [3], 333.3 nM	1.62	–
E31 [3], 1000 nM	3.36	–
E31 [3], 3000 nM	10.2	–
E31 [10], 4.1 nM	–	1.02
E31 [10], 12.3 nM	–	0.782
E31 [10], 37 nM	–	0.994
E31 [10], 111.1 nM	–	0.867
E31 [10], 333.3 nM	–	0.511
E31 [10], 1000 nM	–	0.334
E31 [10], 3000 nM	–	0.00629
E34 [2], 4.1 nM	1.02	–
E34 [2], 12.3 nM	1.13	–
E34 [2], 37 nM	0.858	–
E34 [2], 111.1 nM	0.728	–
E34 [2], 333.3 nM	2.67	–
E34 [2], 1000 nM	2.84	–
E34 [2], 3000 nM	8.59	–
E34 [9], 4.1 nM	–	0.839
E34 [9], 12.3 nM	–	0.842
E34 [9], 37 nM	–	1.09
E34 [9], 111.1 nM	–	0.872
E34 [9], 333.3 nM	–	0.827
E34 [9], 1000 nM	–	0.618
E34 [9], 3000 nM	–	0.26
E57 [5], 4.1 nM	0.499	–
E57 [5], 12.3 nM	0.684	–
E57 [5], 37 nM	0.82	–
E57 [5], 111.1 nM	1.16	–
E57 [5], 333.3 nM	5.64	–
E57 [5], 1000 nM	8.26	–
E57 [5], 3000 nM	9.56	–
E57 [12], 4.1 nM	–	0.974
E57 [12], 12.3 nM	–	0.888
E57 [12], 37 nM	–	0.906
E57 [12], 111.1 nM	–	0.871
E57 [12], 333.3 nM	–	0.651
E57 [12], 1000 nM	–	0.325
E57 [12], 3000 nM	–	0.0382
FT3469 [7], 4.1 nM	1.38	–
FT3469 [7], 12.3 nM	0.929	–
FT3469 [7], 37 nM	1.76	–
FT3469 [7], 111.1 nM	1.44	–
FT3469 [7], 333.3 nM	1.88	–
FT3469 [7], 1000 nM	2.37	–
FT3469 [7], 3000 nM	9.55	–
FT3469 [14], 4.1 nM	–	0.662
FT3469 [14], 12.3 nM	–	0.758
FT3469 [14], 37 nM	–	0.843
FT3469 [14], 111.1 nM	–	0.737
FT3469 [14], 333.3 nM	–	0.705
FT3469 [14], 1000 nM	–	0.676
FT3469 [14], 3000 nM	–	0.37
